The values that follow come from patent publication US5437864A, “Method of inhibiting blood coagulation in extracorporeal circulation by inhibiting human tissue factor” (The Scripps Research Institute, priority 1992, dated 1995).

Where two headings read alike, the source gives them in different places.

Test [1] concerns baboon TF. To be noted: Taylor et al., J. Clin. Invest. (1987); cited from earlier work.
For test [2], the target named is T1, factor VII/VIIa (Homo sapiens, UniProt P08709).
T1 construct: from tissue
T1 sequence (P08709 61-466): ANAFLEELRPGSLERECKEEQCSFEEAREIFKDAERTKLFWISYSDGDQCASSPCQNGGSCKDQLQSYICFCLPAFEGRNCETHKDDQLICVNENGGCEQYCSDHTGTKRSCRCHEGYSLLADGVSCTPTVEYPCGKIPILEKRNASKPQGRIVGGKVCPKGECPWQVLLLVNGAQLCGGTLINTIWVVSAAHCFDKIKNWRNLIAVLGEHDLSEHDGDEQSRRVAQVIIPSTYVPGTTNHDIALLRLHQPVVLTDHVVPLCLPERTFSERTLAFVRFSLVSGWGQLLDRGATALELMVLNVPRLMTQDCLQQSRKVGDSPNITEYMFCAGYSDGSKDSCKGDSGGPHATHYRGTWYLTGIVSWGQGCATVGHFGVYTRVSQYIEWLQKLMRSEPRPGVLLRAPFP
Description: Inhibition of huTF-initiated coagulation by polypeptide analogs of huTFh. The test is classed as biochemical. To be noted: for inhibition of huTF-initiated coagulation, dose-response (FIG. 12): non-lipidated polypeptides, various concentrations. On the procedure:
The ability of the polypeptides of the present invention to inhibit huTF-initiated coagulation were assayed by first incubating the polypeptides in the presence of factor VII/VIIa and calcium ions, and then adding this mixture to factor VII/VIIa-deficient plasma and evaluating clotting times.
Human factor VII/VIIa was isolated as described in Example 3. Ten microliters of a solution of 200 ng of this isolated factor VII/VIIa per ml of HBS/BSA was added to a solution comprising 100 ul of HBS, 20 ul of 25 mM CaCl2, and with 100 ul of TBS/Triton containing synthetic polypeptide. Numerous admixtures were so prepared which contained varying concentrations of the polypeptide and were then maintained at 37 degrees C. for 15 minutes. Relipidated tissue factor prepared as described in Example 4 was diluted in HBS/BSA such that 10 ul would yield a coagulation time of approximately 45 seconds when tested in the coagulation assay described in Example 2. The above maintained admixture was further admixed with this 10 ul dilution of relipidated huTF, with 100 ul of 25 mM CaCl2, and with 100 ul of factor VII/VIIa-deficient plasma (George King Bio-Medical, Inc., Overland Park, Kans.) diluted 1 part plasma to 1.5 parts HBS. The clotting time was then determined and plotted as described in Example 2. A prolongation of clotting time was taken to indicate inhibition of coagulation by the synthetic polypeptide. Percent inhibition was calculated as described in Example 10. Polypeptides producing at least a 30% inhibition of coagulation were considered huTFh binding site polypeptide analogs, i.e., polypeptides p26-49, p146-167 and p161-189 as shown in section I of Table 4.
Lipidated synthetic peptides were prepared in the manner described in Example 4 for relipidation of isolated huTF except that synthetic polypeptide was substituted for isolated huTF. The ratio 52 to 1 of lipid to polypeptide (w/w) was routinely utilized. Lipidated polypeptides producing at least 30% inhibition of coagulation were considered huTFh binding site polypeptide analogs, when present in lipidated form, i.e., those polypeptides shown in section II of Table 4.
The results of this study are shown in FIG. 12 and indicate that p24-35 and p152-169 are capable of inhibiting 45% and 25% respectively, of the huTF-initiated coagulation when utilized at 10 uM concentrations. It should be noted that in this study background inhibitions such as for those peptides indicated by a closed circle in FIG. 12 were lower than the study shown in Table 4. As a result, polypeptides producing at least a 20% inhibition of coagulation at a concentration of 10 uM in this study were considered huTF binding site polypeptide analogs.

For test [3], the target named is T1, factor VII/VIIa. Description: Inhibition of factor X activation on J82 cells by huTFh polypeptides. It counts as cell-based. To be noted: for Optical Density: O.D. at 405 nm of factor Xa chromogenic product, 50 ul polypeptide solution at 100 uM, PBS control 0.960, no factor VII 0.005, significant if about 0.500 or less. On the procedure: Fifty microliters (ul) of a solution containing a huTF polypeptide analog at 100 uM […] in TBS was added to each well of a 96-well of a 96-well flat bottom polystyrene assay plate. Then to each well was admixed 25 ul of a solution containing factor VII/VIIa isolated as described in Example 3 at a concentration of 1 nm in TBS, further admixed with 25 ul of 20 mM calcium chloride in TBS and the resulting admixture is maintained at room temperature for 30 minutes.
Human bladder cell carcinoma J82 cells were obtained from the American Type Culture Collection (ATCC HTB 1; Rockville, Md.) and cultured as described by Fair et al., J. Biol. Chem., 262:11692-11698 (1987) which methods are incorporated herein by reference.
5×10^4 J82 cells are suspended into 50 ul of TBS and admixed to each well of the polystyrene assay plate after the above maintenance period. Immediately thereafter 25 ul of factor X, isolated as described by Fair et al., J. Biol. Chem., 262:11692-11698 (1987), at a concentration of 100 nM in TBS and 50 ul of Xa chromogenic substrate S-2222 (1 mg/ml in TBS) were admixed, and the resulting admixture was maintained for two minutes at room temperature to form a chromogenic reaction product containing solution.
The amount of chromogenic product formed was quantitated by measuring the amount of optical density (O.D.) at 405 nanometers (nm) using a V-max 96 well spectrophotometer (Molecular Devices, Mountain View, Calif.). Controls with PBS in place of polypeptide or with no factor VII added were also run to establish the maximum and minimum possible O.D. values.

In test [4] the test system is TF. To be noted: Pitlick, J. Clin. Invest., 55:175 (1975); cited from earlier work.
[5] abbreviates: non-phospholipidated peptides, 10 μM, read-out: Inhibition (Percent Inhibition of huTF-initiated coagulation).
The mark [6] stands for this setting: phospholipidated peptides, 10 μM, read-out: Inhibition (Percent Inhibition of huTF-initiated coagulation).

Take activated protein C: the “coagulopathic response and lethal effects of LD100 concentrations of E. coli in baboons” value in test [1] is “prevents the coagulopathic response and lethal effects”.

Turning to H-DSPVECMGQEKGEFREIFYIIGA-OH [p204-226], the inhibition at 10 µM in test [2] (setting [5]) is 20%. In test [3], the “Optical Density” value amounted to 0.715 ± 0.042.

Take “H--TKSGDWKSKCFYTTDTECDLTDEIVKDVKQTY--OH (H-TKSGDWKSKCFYTTDTECDLTDEIVKDVKQTY-OH; cysteine pairing not given here) [p40-71]”: the “inhibition of huTF-initiated coagulation, dose-response (FIG. 12)” value in test [2] is reported as “no substantial inhibition”. The “Inhibition (Percent Inhibition of huTF-initiated coagulation)” value in test [2] (phospholipidated peptides, 10 μM) is 65.0%. For the same substance, in test [3], the “Optical Density” value stood at 0.814 ± 0.053.

For the substance concanavalin A, the “inhibition of TF activity” value in test [4] was “inhibits TF activity”.

On to “H-SGTTNTVAAYNLTWKSTNFKTILEWEPKPV-OH [p1-30]”, for which the values for the inhibition at 10 µM in test [2] (setting [5]) and in test [2] (setting [6]) were 25% and 81%, respectively. Also, the “Optical Density” value in test [3] worked out at 1.098 ± 0.028.

Turning to “H-EWEPKPVNQVYT-OH [p24-35, H--EWEPKPVNQVYT--OH]”, the inhibition at 10 µM in test [2] (Example 17 study (FIG. 12), non-lipidated, 10 uM, read-out: inhibition of huTF-initiated coagulation) was found to be 45%. In test [3], the “binding to factor VII/VIIa and inhibition of factor X activation” value was “bind to factor VII/VIIa and inhibit its ability to form a TF:VII/VIIa complex that can activate factor X”; the “Optical Density” value is 0.477 ± 0.017.

On to “H-YENSPEFTPYLETNLGQPTIQSFEQVGTKV-OH [p94-123]”, for which the “inhibition of huTF-initiated coagulation, dose-response (FIG. 12)” value in test [2] was “no substantial inhibition”. In addition, the inhibition at 10 µM in test [2] (setting [5]) is 20%; in test [2] (setting [6]), 93.7%. For the same substance, in test [3], the “Optical Density” value was found to be 0.818 ± 0.055.

As to H-QAVIPSRTVNRKSTDSPVEC-OH [p190-209], in test [2] (setting [5]), the inhibition at 10 µM came to 20%. The “Optical Density” value in test [3] turned out to be 0.625 ± 0.031.

For H-VFGKDLIYTLYYWKSSSSGKKT-OH [p146-167], the inhibition at 10 µM in test [2] (setting [6]) worked out at 80%. Moreover, in test [3], the “binding to factor VII/VIIa and inhibition of factor X activation” value was “bind to factor VII/VIIa and inhibit its ability to form a TF:VII/VIIa complex that can activate factor X”; the “Optical Density” value came to 0.004 ± 0.001.

In the case of “H-TKVNVTVEDERTLVRRNNTFLSLRDVFGKDLIYTL-OH [p121-155]”, the inhibition at 10 µM in test [2] (setting [5]) worked out at 10%; in test [2] (setting [6]), 55%. Further, in test [3], the “Optical Density” value was determined as 0.889 ± 0.067.
